Results as given in ChEMBL document CHEMBL4422630, “Identification of substituted 5-membered heterocyclic compounds as potential anti-leukemic agents” (Eur J Med Chem, 2019).
One block for each compound: values may come before it. Active and inactive are the calls of the source. No cut-off for these calls is given here.

Tests used:
B-ALL [1] = assay: Antiproliferative activity against mouse B-ALL cells expressing wild type BCR-ABL assessed as reduction in cell viability after 72 hrs by CellTiter-Glo assay; assay type: functional, cell-based
B-ALL [2] = assay: Antiproliferative activity against mouse B-ALL BCR-ABL double knockout cells assessed as reduction in cell viability after 72 hrs by CellTiter-Glo assay; assay type: functional, cell-based
NALM-6 = assay: Antiproliferative activity against human NALM6 assessed as reduction in cell viability after 72 hrs by CellTiter-Glo assay; assay type: functional, cell-based; settings: NALM-6, 72 h
UoC-B1 = assay: Antiproliferative activity against human UOCB1 assessed as reduction in cell viability after 72 hrs by CellTiter-Glo assay; assay type: functional, cell-based; settings: UoC-B1, 72 h
KOPN-8 [3] = assay: Antiproliferative activity against human KOPN8 assessed as reduction in cell viability after 72 hrs by CellTiter-Glo assay; assay type: functional, cell-based; settings: KOPN-8, 72 h
SUP-B15 [4] = assay: Antiproliferative activity against human SUP-B15 assessed as reduction in cell viability after 72 hrs by CellTiter-Glo assay; assay type: functional, cell-based; settings: SUP-B15, 72 h
MV4-11 = assay: Antiproliferative activity against human MV411 assessed as reduction in cell viability after 72 hrs by CellTiter-Glo assay; assay type: functional, cell-based; settings: MV4-11, 72 h
K562 = assay: Antiproliferative activity against human K562 assessed as reduction in cell viability after 72 hrs by CellTiter-Glo assay; assay type: functional, cell-based; settings: K562, 72 h
[5] = Therapeutic index, ratio of EC50 for human BJ cells to EC50 for mouse B-ALL cells expressing wild type BCR-ABL; assay type: toxicity; settings: human BJ cells versus mouse B-ALL cells expressing wild type BCR-ABL; read-out: Ratio EC50
BJ = assay: Antiproliferative activity against human BJ assessed as cell viability after 72 hrs by CellTiter-Glo assay; assay type: functional, cell-based
[6] = Half life in mouse microsomes; assay type: ADME, Microsome
[7] = Intrinsic clearance in mouse microsomes; assay type: ADME, Microsome
[8] = Half life in human microsomes; assay type: ADME, Microsome
[9] = Intrinsic clearance in human microsomes; assay type: ADME, Microsome
[10] = Half life in simulated gastric fluid; assay type: ADME
[11] = Permeability of compound at pH 7.4 by PAMPA; assay type: ADME
[12] = Apparent permeability of compound form apical to basolateral side in human Caco2 cells; assay type: ADME, cell-based; settings: Caco-2
[13] = Apparent permeability of compound form basolateral to apical side in human Caco2 cells; assay type: ADME, cell-based; settings: Caco-2
[14] = Efflux ratio of apparent permeability across basolateral to apical side over apical to basolateral side in human Caco2 cells; assay type: ADME, cell-based; settings: Caco-2
[15] = Half life in mouse plasma; assay type: ADME, cell-free
[16] = Half life in human plasma; assay type: ADME, cell-free
SUP-B15 [17] = assay: Induction of apoptosis in human SUP-B15 cells assessed as increase in caspase 3/7 activity after 24 hrs by caspase-Glo 3/7 reagent based luminescence assay; assay type: functional, cell-based
SUP-B15 [18] = assay: Induction of apoptosis in human SUP-B15 cells assessed as decrease in cell viability at […] after 24 hrs by ApoTox-Glo triplex assay; assay type: functional, cell-based
SUM149PT = assay: Cytotoxicity against human SUM149 cells at 1 uM after 24 hrs by propidium iodide staining-based fluorescence assay relative to control; assay type: functional, cell-based
MDA-MB-231 [19] = assay: Cytotoxicity against human MDA-MB-231 cells up to 30 uM after 24 hrs by propidium iodide staining-based fluorescence assay; assay type: functional, cell-based
KOPN-8 [20] = assay: Induction of apoptosis in human KOPN8 cells assessed as decrease in cell viability at 5 uM after 24 hrs by Annexin V/propidium iodide staining-based flow cytometric analysis; assay type: functional
SUP-B15 [21] = assay: Induction of apoptosis in human SUP-B15 cells assessed as decrease in cell viability at 5 uM after 24 hrs by Annexin V/propidium iodide staining-based flow cytometric analysis; assay type: functional
SUP-B15 [22] = assay: Cell cycle arrest in human SUP-B15 cells assessed as accumulation of cells at G1/G0 phase at 5 uM after 24 hrs by propidium iodide staining-based flow cytometric analysis; assay type: functional
KOPN-8 [23] = assay: Cell cycle arrest in human KOPN8 cells assessed as increase in accumulation of cells at S phase at 5 uM after 24 hrs by propidium iodide staining-based flow cytometric analysis; assay type: functional
KOPN-8 [24] = assay: Cell cycle arrest in human KOPN8 cells at 5 uM after 24 hrs by propidium iodide staining-based flow cytometric analysis; assay type: functional
[25] = Permeability of compound at pH 7.4 assessed as drug retention by PAMPA; assay type: ADME
SUP-B15 [26] = assay: Cytotoxicity in human SUP-B15 cells assessed as decrease in cell viability after 24 hrs by bis-AAF-RF110 dye based assay; assay type: functional
B-ALL [27] = assay: Induction of apoptosis in mouse B-ALL BCR-ABL double knockout cells assessed as increase in caspase 3/7 activity after 24 hrs by caspase-Glo 3/7 reagent based luminescence assay; assay type: functional, cell-based
MDA-MB-231 [28] = assay: Cytotoxicity against human MDA-MB-231 cells at 30 uM after 24 hrs by propidium iodide staining-based fluorescence assay; assay type: functional, cell-based
SUP-B15 [29] = assay: Induction of apoptosis in human SUP-B15 cells assessed as late apoptotic cells level after 24 hrs by Annexin V and propidium iodide staining based flow cytometry (reference value: 83%); assay type: functional
SUP-B15 [30] = assay: Induction of apoptosis in human SUP-B15 cells assessed as late apoptotic cells level after 24 hrs by Annexin V and propidium iodide staining based flow cytometry (reference value: 13.5%); assay type: functional
KOPN-8 [31] = assay: Induction of apoptosis in human KOPN8 cells assessed as late apoptotic cells level after 24 hrs by Annexin V and propidium iodide staining based flow cytometry (reference value: 96.4%); assay type: functional
KOPN-8 [32] = assay: Induction of apoptosis in human KOPN8 cells assessed as late apoptotic cells level after 24 hrs by Annexin V and propidium iodide staining based flow cytometry (reference value: 2%); assay type: functional
[33] = Protein binding in mouse plasma; assay type: ADME, cell-free; settings: read-out: PPB (converted)
[34] = Protein binding in human plasma; assay type: ADME, cell-free; settings: read-out: PPB (converted)
KOPN-8 [35] = assay: Cell cycle arrest in human KOPN8 cells assessed as reduction in accumulation of cells at G1/G0 phase at 5 uM after 24 hrs by propidium iodide staining-based flow cytometric analysis; assay type: functional

EC50 (MV4-11): 0.603 µM
EC50 (K562): 8.36 µM
half-life [6]: 3.41 h
CLint scaled [7]: 16.8 mL/min/kg
half-life [8]: 0.86 h
CLint scaled [9]: 24.3 mL/min/kg
half-life [10]: > 48 h
Peff [11]: 1916.4 ×10⁻⁶ cm/s
Papp A→B [12]: 7.26 ×10⁻⁶ cm/s
Papp B→A [13]: 2.26 ×10⁻⁶ cm/s
efflux ratio [14]: 0.31
half-life [15]: > 48 h
half-life [16]: > 48 h
permeability [25]: 53.6%
SMILES: CC(C)C(=O)Nc1ccc2oc(-c3ccc(C(C)(C)C)cc3)nc2c1
EC50 (B-ALL [1]): 4.65 µM
EC50 (B-ALL [2]): > 43.3 µM
EC50 (NALM-6): 0.604 µM
EC50 (UoC-B1): > 43.3 µM
EC50 (KOPN-8 [3]): 1.11 µM
EC50 (SUP-B15 [4]): 1.32 µM
selectivity ratio [5]: > 9
EC50 (BJ): > 43.3 µM
Activity (SUP-B15 [17]): Active
Activity (SUP-B15 [18]): Active
Activity (SUM149PT): Active
Activity (MDA-MB-231 [19]): inactive
Activity (KOPN-8 [20]): Active
Activity (SUP-B15 [21]): Active
Activity (SUP-B15 [22]): Active
Activity (KOPN-8 [23]): Active
Activity (KOPN-8 [24]): inactive
Activity (SUP-B15 [26]): Active
Activity (B-ALL [27]): inactive
Activity (MDA-MB-231 [28]): Active
Activity (SUP-B15 [29]): 69.2%
Activity (SUP-B15 [30]): 6.3%
Activity (KOPN-8 [31]): 94.4%
Activity (KOPN-8 [32]): 4.8%

EC50 (MV4-11): 0.65 µM
SMILES: COc1ccc(O)c(-c2cc(-c3ccc(Cl)cc3)[nH]n2)c1
EC50 (B-ALL [1]): 8.04 µM
EC50 (B-ALL [2]): 27.8 µM
EC50 (NALM-6): > 21.6 µM
EC50 (UoC-B1): 10.6 µM
EC50 (KOPN-8 [3]): 1.4 µM
EC50 (SUP-B15 [4]): 5.23 µM
selectivity ratio [5]: > 5
EC50 (BJ): > 43.3 µM

EC50 (MV4-11): 0.716 µM
EC50 (K562): > 10 µM
half-life [6]: 5.44 h
CLint scaled [7]: 10.5 mL/min/kg
half-life [8]: 3.56 h
CLint scaled [9]: 5.85 mL/min/kg
half-life [10]: > 48 h
Papp ([11]; read-out: Peff): 204 ×10⁻⁶ cm/s
Papp A→B [12]: 0.206 ×10⁻⁶ cm/s
Papp B→A [13]: 4.13 ×10⁻⁶ cm/s
efflux ratio [14]: 20.1
fraction unbound [33]: 0.002
fraction unbound [34]: 0.003
half-life [15]: > 48 h
half-life [16]: > 48 h
permeability [25]: 74.6%
SMILES: O=C(Cc1ccccc1)Nc1ccc(-c2nc3cc(NC(=O)Cc4ccccc4)ccc3[nH]2)cc1
EC50 (B-ALL [1]): 0.635 µM
EC50 (B-ALL [2]): 0.784 µM
EC50 (NALM-6): 4.24 µM
EC50 (UoC-B1): > 43.3 µM
EC50 (KOPN-8 [3]): 0.18 µM
EC50 (SUP-B15 [4]): 0.27 µM
selectivity ratio [5]: 13
EC50 (BJ): 8.35 µM
Activity (SUP-B15 [17]): Active
Activity (SUP-B15 [18]): Active
Activity (SUM149PT): Active
Activity (MDA-MB-231 [19]): inactive
Activity (KOPN-8 [20]): Active
Activity (SUP-B15 [21]): Active
Activity (KOPN-8 [35]): Active
Activity (KOPN-8 [23]): Active
Activity (SUP-B15 [26]): Active
Activity (B-ALL [27]): inactive
Activity (MDA-MB-231 [28]): Active
Activity (SUP-B15 [29]): 24.2%
Activity (SUP-B15 [30]): 18.6%
Activity (KOPN-8 [31]): 80.1%
Activity (KOPN-8 [32]): 18.5%

permeability [25]: 0%
SMILES: CNC(=C[N+](=O)[O-])NCCSCc1ccc(CN(C)C)o1 [RANITIDINE]

SMILES: COc1cc(-c2cc3ccccc3[nH]2)[nH]c1/C=C1\N=C(C)C=C1C
EC50 (B-ALL [1]): 1.24 µM
EC50 (B-ALL [2]): 12.5 µM
EC50 (NALM-6): 1.07 µM
EC50 (UoC-B1): 1.49 to 1.5 µM
EC50 (KOPN-8 [3]): 14.7 µM
EC50 (SUP-B15 [4]): 25.9 µM
selectivity ratio [5]: 7
EC50 (BJ): 8.71 µM

Papp A→B [12]: 0.621 ×10⁻⁶ cm/s
Papp B→A [13]: 13.1 ×10⁻⁶ cm/s
efflux ratio [14]: 21.1
SMILES: CC[C@]1(O)C[C@@H]2CN(CCc3c([nH]c4ccccc34)[C@@](C(=O)OC)(c3cc4c(cc3OC)N(C)[C@H]3[C@@](O)(C(=O)OC)[C@H](OC(C)=O)[C@]5(CC)C=CCN6CC[C@]43[C@@H]65)C2)C1 [VINBLASTINE]

SMILES: COc1ccc(-c2[nH]nc(C)c2-c2ccc(OC)c(O)c2)c(O)c1
EC50 (B-ALL [1]): 8.53 µM
EC50 (B-ALL [2]): 28.9 µM
EC50 (NALM-6): > 21.6 µM
EC50 (UoC-B1): 6.1 µM
EC50 (KOPN-8 [3]): 34.6 µM
EC50 (SUP-B15 [4]): > 43.3 µM
selectivity ratio [5]: > 5
EC50 (BJ): > 43.3 µM

SMILES: O=C(O)CCCc1ccc(N(CCCl)CCCl)cc1 [CHLORAMBUCIL]
half-life [10]: 15.3 h

SMILES: O=C(c1cc(-c2csc(-c3ccc(O)cc3)n2)c[nH]1)N1CCCC1
EC50 (B-ALL [1]): 3.98 µM
EC50 (B-ALL [2]): > 43.3 µM
EC50 (NALM-6): > 43.3 µM
EC50 (UoC-B1): > 43.3 µM
EC50 (KOPN-8 [3]): > 43.3 µM
EC50 (SUP-B15 [4]): > 43.3 µM
selectivity ratio [5]: > 11
EC50 (BJ): > 43.3 µM
